{
  "source": "patent US8293711B2",
  "about": "“Use of natriuretic peptides for treating angioedema syndromes” (Pharis Biotech GmbH, priority 2007, dated 2012)",
  "origin": "cited, not measured here",
  "key": {"[1]": {"tested_on": "bradykinin-induced edema in the hamster cheek pouch", "details": "unspecific tyrosine kinase inhibitors"}, "HEK-293": {"tested_on": "HEK-293", "details": "human embryonic kidney cell line HEK-293; via activation of a cGMP-dependent pathway"}, "[2]": {"tested_on": "acute renal failure models"}},
  "data": [
    {"compound": "N#CC(C#N)=Cc1cc(O)c(O)c(O)c1", "note": "[tyrphostin 25]", "values": [
      {"measurement": "bradykinin-mediated effect (edema)", "setting": "[1]", "value": "attenuated"}
    ]},
    {"compound": "CC[C@H](C)[C@@H]1NC(=O)[C@H](CCCNC(=N)N)NC(=O)[C@H](CC(=O)O)NC(=O)[C@H](CCSC)NC(=O)[C@H](CCCNC(=N)N)NC(=O)CNC(=O)CNC(=O)[C@H](Cc2ccccc2)NC(=O)[C@@H](NC(=O)[C@H](CO)NC(=O)[C@H](CO)NC(=O)[C@H](CCCNC(=N)N)NC(=O)[C@H](CCCNC(=N)N)NC(=O)[C@H](CC(C)C)NC(=O)[C@@H](N)CO)CSSC[C@@H](C(=O)N[C@@H](CC(N)=O)C(=O)N[C@@H](CO)C(=O)N[C@@H](Cc2ccccc2)C(=O)N[C@@H](CCCNC(=N)N)C(=O)N[C@@H](Cc2ccc(O)cc2)C(=O)O)NC(=O)CNC(=O)[C@H](CC(C)C)NC(=O)CNC(=O)[C@H](CO)NC(=O)[C@H](CCC(N)=O)NC(=O)[C@H](C)NC(=O)CNC1=O", "note": "[ANP, atrial natriuretic peptide]", "values": [
      {"measurement": "tyrosine phosphorylation", "setting": "HEK-293", "value": "able to counteract tyrosine phosphorylation"}
    ]},
    {"compound": "urodilatin", "values": [
      {"measurement": "diuretic and natriuretic effects", "setting": "[2]", "value": "strong diuretic and natriuretic effects"},
      {"measurement": "tyrosine phosphorylation", "setting": "HEK-293", "value": "able to counteract tyrosine phosphorylation"}
    ]},
    {"compound": "O=c1c(-c2ccc(O)cc2)coc2cc(O)cc(O)c12", "note": "[genistein]", "values": [
      {"measurement": "bradykinin-mediated effect (edema)", "setting": "[1]", "value": "attenuated"}
    ]}
  ]
}
